{"source": "patent EP0551200A1", "about": "“Protein phosphatase inhibitors for use in therapy” (priority 1992, dated 1993)", "key": {"Egr-1 protein": {"tested_on": "Egr-1 protein", "assay_type": "cell-based", "details": "2 h treatment, data not shown", "protocol": "(§1) Quiescent human fibroblasts were stimulated with MEM containing 0.5 µM okadaic acid in the presence or absence of cycloheximide (10 µg/ml) for the times indicated in Fig. 11. […] Treatment of cells with cycloheximide enhanced the induction of Egr-1 mRNA by okadaic acid at 1.5 and 3 h (Fig. 11). Similarly puromycin, like cycloheximide, also \"superinduces\" the induction of the Egr-1 mRNA by okadaic acid (data not shown). […] However, in view that protein phosphatase 1 (PP1) and protein phosphatase 2A (PP2A) regulate enzymes associated with cellular protein synthesis (Cohen, Annu. Rev. Biochem. 58, 453-508, 1989) the effect of okadaic acid on protein synthesis in mouse and human fibroblasts was also measured. […] By then the Egr-1 mRNA message was already induced. A corollary to this is a comparison of the amount of ³⁵S-methionine labelled Egr-1 protein immunoprecipitated by R5232 antibodies from protein phosphatase inhibitor-treated and control cells. […] Thus, the induction of the Egr-1 gene by phosphatase inhibitors is unlikely to be mediated by their late inhibitory effects on cellular protein synthesis."}, "27 hsp complex": {"tested_on": "27 hsp complex", "test": "Phosphorylation of the 27 hsp complex in the cytosolic fraction of 32P-labeled fibroblasts", "assay_type": "cell-based, human", "protocol": "Human fibroblasts prelabeled with [³²P]orthophosphate (1 mCi/ml) were incubated with increasing concentrations of OA or TNF. Cytosolic fractions were prepared from the cells and subjected to two-dimensional gel electrophoresis. a, control; b, 80 nM OA; c, 160 nM OA; d, 50 units/ml TNF; and e, 320 nM OA.\nThe fibroblasts were treated with 200 nM of okadaic acid for 0 min (a), 5 min (b), 15 min (c), or 30 min (d). Cytosolic fractions were prepared from the fibroblasts and analyzed by two-dimensional gel electrophoresis.\nRadiolabeling of Cells and Cell Lysis - For labeling with [³²P]orthophosphate cells were plated onto 90 mm plastic tissue culture dishes and incubated for 3 days for the cells to become confluent. […]\nTwo-dimensional Gel Electrophoresis - The lyophilized fractions (each of approximately 12 µg) were subjected to isoelectric focusing for 18,000 V/h with pH 3-10 ampholytes using the Millipore Investigator two-dimensional electrophoresis system (Millipore). […] Molecular weight marker proteins from Sigma were detected by Coomassie Blue staining and marked on the autoradiogram. ³²P-Labeled 27 hsp complex prepared from human fibroblasts heat shocked at 43°C for 30 min was also used as a marker. […]"}, "EGFR": {"tested_on": "EGFR", "test": "Phosphorylation of EGF receptor, immunoprecipitation from 32P-labeled fibroblasts", "assay_type": "cell-based, human", "details": "250 nM, 15 min", "protocol": "Phosphorylation of EGFR by TNF, IL-1, EGF, PDGF (indicated as PGF) and okadaic acid (OA). ³²P-Labeled cultures of fibroblast cells were treated with TNF (100 units/ml), IL-1 (100 units/ml), EGF (50 ng/ml), PDGF (32 ng/ml) or OA (250 nM) for 15 min. Control is indicated by 0. The EGFR was immunoprecipitated with anti-EGFR antibody (Oncogene Science, Manhasset, N.Y., US). The proteins were subjected to 7.5% SDS-PAGE and autoradiography.\nIL-1, TNF, or Okadaic Acid Treatment Stimulate Phosphorylation of the EGF Receptor - One feature of TNF and IL-1 action is the transmodulation of the EGFR via phosphorylation. Okadaic acid was added to human fibroblasts to see if it can also mimic this effect of TNF and IL-1. ³²P-Labeled human fibroblasts were treated with ligand (TNF, IL-1, EGF, PDGF, or okadaic acid) for 15 min and extracted for analysis. The extracts were immunoprecipitated with anti-EGFR antibodies. The immunoprecipitated EGFR derived from variously treated fibroblasts was analyzed by SDS-PAGE and autoradiography."}, "mouse fibroblasts": {"tested_on": "mouse fibroblasts", "test": "Total cellular protein synthesis in mouse fibroblasts", "assay_type": "cell-based", "details": "data not shown", "protocol": "as §1"}}}
{"compound": "C=C1[C@@H](O)[C@@H]2O[C@]3(CC[C@H](/C=C/[C@@H](C)[C@@H]4CC(C)=C[C@@]5(O[C@H](C[C@@](C)(O)C(=O)O)CC[C@H]5O)O4)O3)CC[C@H]2O[C@@H]1[C@@H](O)C[C@H](C)[C@H]1O[C@@]2(CCCCO2)CC[C@H]1C", "note": "[okadaic acid]", "values": [{"measurement": "amount of 35S-methionine labeled Egr-1 protein relative to control cells", "setting": "Egr-1 protein", "result": "4 to 5", "unit": "fold"}, {"measurement": "phosphorylation state of the 27 hsp complex (in words)", "setting": "27 hsp complex; 200 nM, after 30 min", "result": "hyperphosphorylated"}, {"measurement": "concentration producing about the same increase in phosphorylation of the 27 hsp complex as 50 units/ml of TNF", "setting": "27 hsp complex; 15 min", "result": "160 to 320", "unit": "nM"}, {"measurement": "stimulation of phosphorylation of the EGFR (in words)", "setting": "EGFR", "result": "to an even greater extent than does TNF, IL-1, EGF or PDGF"}, {"measurement": "effect on total cellular protein synthesis (in words)", "setting": "mouse fibroblasts; 0.5 µM, first 2 h", "result": "little measurable effect"}, {"measurement": "inhibition at 0.5 µM", "setting": "mouse fibroblasts; Mus musculus, Fibroblast, at 4 h", "result": "≤ 50", "unit": "%"}]}
